The results in this text go back to patent publication US20250084056A1, “SUBSTITUTED OXOISOINDOLINYL PIPERIDINE-2,6-DIONE COMPOUNDS” (BRISTOL-MYERS SQUIBB COMPANY, priority 2023, published 2025).

Each structure is given as a SMILES string. A value given as a limit tells only on which side of the number the result lay.

Type in all cases: cell-based
Assay [1] concerns the target GSPT1 (Homo sapiens, UniProt P15170+Q96SW2). The experiment in a line: GSPT1 Cellular Degradation Assay (DF15-GSPT1-ePL). The arrangement: expressed in transfected cells. Particulars: DF15-GSPT1-ePL cells, 20 hours. The source says:
DF15-GSPT1-ePL was used for intracellular GSPT1 protein degradation detection in form of chemiluminescent signal, which was built on a human DF15 cell line (CVCL_Y429) with conditional co-expression of chimeric GSPT1 (target) and ePL/donor (enhanced ProLabel® by DiscoverX for enzyme fragment complementation with donor-acceptor pairing). The cells used the culture medium in two arrangements for assay and maintenance. During assay, it used Core-RPMI 1640 medium with 10% Fetal Bovine Serum (Heat Inactivated) and 1× Penicillin/Streptomycin; and during passage maintenance, used added ingredients: 0.1 mM NEAA, 1 mM sodium pyruvate, 25 mM Hepes, 0.1% Pluronic F-68, 1× Glutamin, 4 μg/mL Blasticidin (selection agent). Detection was performed on a 1536 well tissue culture plate (Corning #3727) with cells seeded in 3.5 μL core-RPMI 1640 at density of 0.25 million/mL after the pre-titrated test compounds in DMSO on ECHO plate were dispensed onto the assay plate by use of ECHO (liquid handing system via acoustic energy from Labcyte). Assay incubation lasted 20 hours in 37° C. incubator with 5% CO2; then followed by 30 minutes of plate-cooling at room temperature; then detection-reagent-mix was added in 3.5 μL/well with pre-defined proportion of enzyme acceptor, substrate, and lysis buffer. Plate signal reading for luminescence on an EnVision plate reader (PerkinElmer) was conducted after 60 minutes of former step at room temperature. Raw data was collected and processed with Dotmatics (data analyzer) for test compound's potency values. The reference compound, 3-[5-(3,6-dimethoxyisoquinolin-1-yl)-1-oxo-2,3-dihydro-1H-isoindol-2-yl]piperidine-2,6-dione, at […] was used to define 75% response. Assay results for each compound were reported as DC50, the concentration giving 50% response, and Dmax, the maximum response observed with the compound.

The subject of assay [2] is Phospho-Rb (Ser807/811). Put plainly: Phospho-Retinoblastoma (pRB) Cellular Assay. Particulars: Homo sapiens, OVCAR-3, NIH OVCAR3 cells, 24 hours; for IC50: concentration giving 50% response; for Emax: maximum response, reference compound at 10 μM = 100%, read-out: pRB Ymax. The procedure:
Phospho-Retinoblastoma (pRB) Cellular Assay
NIH OVCAR3 (HTB-161, American Type Culture Collection, Manassas VA) cells were grown up to passage 10 in culture media made up of RPMI (11835-030 Gibco, Grand Island NY), 20% HI FBS (16140-071, Gibco, Grand Island NY), and 0.01 mg/mL insulin from bovine pancreas (I6634-1G, Sigma Aldrich, St. Louis, MO).
The cells were seeded in a 384-well CulturPlate (6007688, Perkin Elmer, Waltham MA) at a density of 10,000 cells/well in 20 μL of the above culture media and incubated overnight at 37° C. and 5% CO2.
The next day, cells were treated using an Echo 650 (Beckman Coulter, Indianapolis IN) acoustic dispenser with 40 nL of compounds dissolved in DMSO at the appropriate serial dilutions (10 mM to […]). Cells were then incubated for 24 hours as above.
After 24 hours elapsed, media was removed from each well and shortly after 20 μL of the following mix was added: 12 μL deionized water, 4 μL lysis buffer, 4 μL of reconstituted antibody mix, and 1:100 phosphatase inhibitor. These components belong to the Phospho-Rb (Ser807/811) Cellular Kit (64RBS807PEY, Perkin Elmer, Waltham MA).
Plates were sealed and incubated away from light at room temperature for at least 4 hours before reading them on an EnVision plate reader (Perkin Elmer, Waltham MA) according to the kit manufacturer's protocol. The reference compound, N-(5-{[(5-tert-butyl-1,3-oxazol-2-yl)methyl]sulfanyl}-1,3-thiazol-2-yl)piperidine-4-carboxamide, at 10 μM was used to define 100% response. Assay results for each compound were reported as IC50, the concentration giving 50% response, and Ymax, the maximum response observed with the compound.

For assay [3], the target named is Cyclin E1 (Homo sapiens, UniProt P24864+Q96SW2). The experiment in a line: Cyclin E1 Cellular Degradation Assay (MSD). The arrangement: endogenous in cells; host or cells: OVCAR3. Particulars: for DC50 / Dmax: Cyclin E1 cellular degradation; for Dmax: maximum degradation; for Ratio of GSPT1 DC50/Cyclin E1 DC50: selectivity for degradation of Cyclin E1 over GSPT1. As for the experimental part:
Culturing cells: On Day 0, OVCAR3 cells were plated at 15,000 cells/well in 40 μL of culture medium (RPMI1640, 20% FBS, 0.01 insulin, 1% Anti/Anti) in a 384 well cell culture plate. Cell cultures were incubated for 24 hours at 37° C. and 5% CO2.
Coating MSD plates: On Day 1, rabbit anti-CCNE1 antibody (Abcam ab33911, 1 μg/mL in DPBS, […]) was dispensed to a Meso Scale Discovery plate (MSD L21XA). The MSD plate was spun briefly to ensure the solution coated the bottom of the well and incubated overnight at 4° C. On Day 2, the plate was washed 3 times with TBS +0.2% TWEEN, blocked for 1 hour with 3% MSD Blocker A (MSD R93AA-1, 30 μL/well), then washed again 3 times with TBS+0.2% TWEEN.
Treating and lysing cells: On Day 1, compounds of interest were dispensed into the cell cultures by acoustic dispensing technology. The cell cultures were then spun at 400 g for 4 minutes to disperse the compounds and incubated at 37° C. and 5% CO2 for 24 hours. After incubation, 40 μL of DPBS was added to the cell cultures to dilute the media. All liquid was gently discarded and immediately replaced with 30 μL of lysis buffer (MSD Tris Lysis buffer (MSD R60TX-2), Halt Protease inhibitor (ThermoFisher 78438), Phosphatase Inhibitor II (Sigma-Aldrich P5726), Phosphatase Inhibitor III (Sigma-Aldrich P0044), 0.02M PMSF (Sigma-Aldrich 7626), 0.1% SDS (VWR E719-100ML)). The plate was then sealed, shaken at 300 rpm at room temperature for 5 minutes, and freeze-thawed for optimum cell lysis.
Collecting data: After thawing, 25 μL of lysate was transferred to a coated MSD plate. The plate was then sealed and shaken at 300 rpm overnight in 4° C. On Day 3, the MSD plate was washed 3 times with TBS+0.2% TWEEN. Mouse anti-CCNE1 antibody (Abcam ab238081, 0.5 μg/mL in 1% MSD Blocker A, 10 μL/well) dispensed to the MSD plate, which was then sealed and shaken at room temperature for 3 hours. After the first antibody incubation, the plate was washed 3 times with TBS+0.2% TWEEN, then goat anti-mouse Sulfo-Tag antibody (MSD R32AC, 1 μg/mL in 1% MSD Blocker A, 10 μL/well) was dispensed to the MSD plate. The plate was sealed again and shaken at room temperature for 1 hour, then washed 3 times with TBS+0.2% TWEEN. After the final wash, 35 μL of 1× Read Buffer (MSD R92TC-1) was added to each well and the data was captured using the MSD plate reader. The reference compound, [2-(2,6-dioxopiperidin-3-yl)-4-methoxy-3-oxo-2,3-dihydro-1H-isoindol-5-yl]methyl N-[4-(3,4-difluorophenoxy)phenyl]carbamate, at […] was used to define […]. Assay results for each compound were reported as DC50, the concentration giving 50% response, and Dmax, the maximum response observed with the compound.

Chain of Cyclin E1 (P24864 whole entry): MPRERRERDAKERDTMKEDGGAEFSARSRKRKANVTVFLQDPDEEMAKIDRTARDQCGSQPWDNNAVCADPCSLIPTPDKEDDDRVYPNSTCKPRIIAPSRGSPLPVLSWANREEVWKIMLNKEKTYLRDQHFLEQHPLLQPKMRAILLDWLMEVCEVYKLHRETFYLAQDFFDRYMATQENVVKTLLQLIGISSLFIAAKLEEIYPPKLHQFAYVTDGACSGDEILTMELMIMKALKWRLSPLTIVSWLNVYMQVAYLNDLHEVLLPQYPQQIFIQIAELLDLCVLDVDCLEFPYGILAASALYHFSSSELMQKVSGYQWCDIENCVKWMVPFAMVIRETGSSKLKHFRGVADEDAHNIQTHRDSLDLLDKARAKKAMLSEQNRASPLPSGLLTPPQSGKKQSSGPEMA
Chain of Cyclin E1 (Q96SW2 whole entry): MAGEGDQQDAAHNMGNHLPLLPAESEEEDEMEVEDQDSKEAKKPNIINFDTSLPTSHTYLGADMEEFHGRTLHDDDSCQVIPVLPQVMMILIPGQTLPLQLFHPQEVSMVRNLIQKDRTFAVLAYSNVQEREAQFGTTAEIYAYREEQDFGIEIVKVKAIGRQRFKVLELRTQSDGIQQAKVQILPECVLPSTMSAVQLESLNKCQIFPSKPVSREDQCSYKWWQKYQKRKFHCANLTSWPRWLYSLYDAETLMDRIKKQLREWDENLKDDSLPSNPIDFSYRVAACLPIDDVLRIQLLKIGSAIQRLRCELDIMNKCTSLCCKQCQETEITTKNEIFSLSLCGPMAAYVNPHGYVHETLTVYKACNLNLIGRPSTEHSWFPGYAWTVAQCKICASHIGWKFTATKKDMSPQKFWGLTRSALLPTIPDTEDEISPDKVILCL
Chain of Cyclin E1 (Q16531 whole entry partner): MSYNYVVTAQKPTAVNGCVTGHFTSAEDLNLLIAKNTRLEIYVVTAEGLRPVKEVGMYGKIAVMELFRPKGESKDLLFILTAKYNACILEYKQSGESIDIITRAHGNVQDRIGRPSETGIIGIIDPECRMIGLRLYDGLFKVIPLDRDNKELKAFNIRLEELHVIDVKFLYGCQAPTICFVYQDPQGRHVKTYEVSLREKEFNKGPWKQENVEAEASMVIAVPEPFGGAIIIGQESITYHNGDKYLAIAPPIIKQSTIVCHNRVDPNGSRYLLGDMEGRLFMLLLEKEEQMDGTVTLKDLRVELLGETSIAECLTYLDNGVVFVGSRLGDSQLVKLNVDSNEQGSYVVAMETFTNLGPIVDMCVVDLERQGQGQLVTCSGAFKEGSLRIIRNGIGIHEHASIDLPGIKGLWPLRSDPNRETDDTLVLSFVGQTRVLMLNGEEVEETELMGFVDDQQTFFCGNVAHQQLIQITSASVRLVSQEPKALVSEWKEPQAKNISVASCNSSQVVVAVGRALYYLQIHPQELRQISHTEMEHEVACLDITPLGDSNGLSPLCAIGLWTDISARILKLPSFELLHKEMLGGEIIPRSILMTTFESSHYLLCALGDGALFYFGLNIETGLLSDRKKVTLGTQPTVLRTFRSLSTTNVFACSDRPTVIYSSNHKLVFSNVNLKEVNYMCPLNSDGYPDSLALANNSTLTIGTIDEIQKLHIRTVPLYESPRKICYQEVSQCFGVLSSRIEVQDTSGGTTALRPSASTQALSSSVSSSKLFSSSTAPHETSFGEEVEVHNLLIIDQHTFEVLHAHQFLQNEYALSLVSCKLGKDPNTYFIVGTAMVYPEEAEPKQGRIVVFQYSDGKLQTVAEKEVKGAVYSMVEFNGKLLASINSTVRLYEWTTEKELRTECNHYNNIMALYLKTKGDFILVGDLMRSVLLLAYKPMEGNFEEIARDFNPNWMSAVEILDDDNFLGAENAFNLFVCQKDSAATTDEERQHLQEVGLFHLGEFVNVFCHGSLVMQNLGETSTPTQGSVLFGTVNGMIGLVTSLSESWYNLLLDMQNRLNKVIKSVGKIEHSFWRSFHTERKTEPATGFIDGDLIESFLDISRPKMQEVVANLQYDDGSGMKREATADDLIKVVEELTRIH
Chain of GSPT1 (P15170 whole entry, the tested form may be a part): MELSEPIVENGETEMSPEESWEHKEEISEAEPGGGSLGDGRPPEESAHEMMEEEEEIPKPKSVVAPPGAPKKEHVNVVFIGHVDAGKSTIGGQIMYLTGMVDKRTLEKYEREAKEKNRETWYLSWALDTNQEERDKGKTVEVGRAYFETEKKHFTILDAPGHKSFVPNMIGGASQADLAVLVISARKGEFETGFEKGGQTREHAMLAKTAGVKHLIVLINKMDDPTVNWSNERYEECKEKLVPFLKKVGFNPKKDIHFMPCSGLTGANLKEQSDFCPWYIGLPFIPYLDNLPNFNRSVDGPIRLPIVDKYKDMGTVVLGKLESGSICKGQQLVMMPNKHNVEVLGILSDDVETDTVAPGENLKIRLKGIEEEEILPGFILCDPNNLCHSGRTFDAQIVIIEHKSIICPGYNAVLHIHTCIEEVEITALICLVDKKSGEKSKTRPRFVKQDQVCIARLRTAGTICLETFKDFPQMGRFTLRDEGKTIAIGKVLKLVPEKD
Chain of GSPT1 (Q96SW2 whole entry, the tested form may be a part): as the sequence (Q96SW2 whole entry) above
Chain of GSPT1 (Q16531 whole entry partner, the tested form may be a part): as the sequence (Q16531 whole entry partner) above

For the molecule `COc1c(COC(=O)Nc2ccc(Oc3ccccc3Cl)cc2F)ccc2c1C(=O)N(C1CCC(=O)NC1=O)C2` (stereo not drawn) [Example 107, [2-(2,6-dioxopiperidin-3-yl)-4-methoxy-3-oxo-2,3-dihydro-1H-isoindol-5-yl]methyl N-[4-(2-chlorophenoxy)-2-fluorophenyl]carbamate], in assay [1], it took 10000 nM to reach half-maximal degradation (DC50) and the Dmax was 63%. In addition, in assay [2], inhibition was half-maximal at 106 nM (IC50) and the Emax was 124%. In assay [3], the DC50 worked out at 69 nM, the Dmax turned out to be 108% and the “Ratio of GSPT1 DC50/Cyclin E1 DC50” value was determined as 146.

Regarding `COc1c(COC(=O)Nc2ccc(Oc3cc(F)c(F)cc3F)cc2)ccc2c1C(=O)N(C1CCC(=O)NC1=O)C2` (stereo not drawn) [Example 44, [2-(2,6-dioxopiperidin-3-yl)-4-methoxy-3-oxo-2,3-dihydro-1H-isoindol-5-yl]methyl N-[4-(2,4,5-trifluorophenoxy)phenyl]carbamate], in assay [1], the DC50 is above 14000 nM and the Dmax was 42%. Also, in assay [2], the IC50 is 109 nM and the Emax was found to be 111%. In assay [3], it took 273 nM to reach half-maximal degradation (DC50), the Dmax was 111% and the “Ratio of GSPT1 DC50/Cyclin E1 DC50” value is on record as above 51.

With `O=C1CCC(N2Cc3ccc(COC(=O)Nc4ccc(Oc5ccc(F)c(F)c5)cc4)c(Oc4ccccc4)c3C2=O)C(=O)N1` (stereo not drawn) [Example 63, [2-(2,6-dioxopiperidin-3-yl)-3-oxo-4-phenoxy-2,3-dihydro-1H-isoindol-5-yl]methyl N-[4-(3,4-difluorophenoxy)phenyl]carbamate], in assay [1], the DC50 is above 14000 nM and the Dmax is 41%. Moreover, in assay [2], the IC50 came out at 136 nM and the Emax was found to be 121%. In addition, in assay [3], the DC50 turned out to be 113 nM, the Dmax stood at 104% and the “Ratio of GSPT1 DC50/Cyclin E1 DC50” value is given as above 124.

Take `CC(C)(O)COc1c(COC(=O)Nc2ccc(Oc3cc(F)c(F)c(F)c3)cc2F)ccc2c1C(=O)N(C1CCC(=O)NC1=O)C2` (stereo not drawn) [Example 165, [2-(2,6-dioxopiperidin-3-yl)-4-(2-hydroxy-2-methylpropoxy)-3-oxo-2,3-dihydro-1H-isoindol-5-yl]methyl N-[2-fluoro-4-(3,4,5-trifluorophenoxy)phenyl]carbamate]: in assay [1], the DC50 is above 14000 nM and the Dmax turned out to be 10%. Moreover, in assay [2], the IC50 stood at 28 nM and the Emax turned out to be 133%. Further, in assay [3], it took 42 nM to reach half-maximal degradation (DC50), the Dmax worked out at 107% and the “Ratio of GSPT1 DC50/Cyclin E1 DC50” value was above 332.

As to `CCOc1c(COC(=O)Nc2ccc(Oc3cccc(F)c3)cc2)ccc2c1C(=O)N(C1CCC(=O)NC1=O)C2` (stereo not drawn) [Example 55, [2-(2,6-dioxopiperidin-3-yl)-4-ethoxy-3-oxo-2,3-dihydro-1H-isoindol-5-yl]methyl N-[4-(3-fluorophenoxy)phenyl]carbamate], in assay [1], the DC50 is above 14000 nM and the Dmax worked out at 21%. In addition, in assay [2], the IC50 came to 185 nM and the Emax turned out to be 114%. For the same molecule, in assay [3], it took 141 nM to reach half-maximal degradation (DC50), the Dmax came out at 108% and the “Ratio of GSPT1 DC50/Cyclin E1 DC50” value was above 99.

Take `O=C1CCC(N2Cc3ccc(COC(=O)Nc4ccc(Oc5ccc(F)cc5F)cc4)c(O[C@@H]4CCOC4)c3C2=O)C(=O)N1` (stereo partly drawn) [Example 157, [2-(2,6-dioxopiperidin-3-yl)-3-oxo-4-[(3R)-oxolan-3-yloxy]-2,3-dihydro-1H-isoindol-5-yl]methyl N-[4-(2,4-difluorophenoxy)phenyl]carbamate]: in assay [2], the midpoint of inhibition, the IC50, lay at 65 nM and the Emax worked out at 119%. For the same molecule, in assay [3], the DC50 worked out at 116 nM and the Dmax was 99%.

For the molecule `O=C1CCC(N2Cc3ccc(COC(=O)Nc4ccc(Oc5cccc(Cl)c5)cc4)c(O[C@@H]4CCOC4)c3C2=O)C(=O)N1` (stereo partly drawn) [Example 158, [2-(2,6-dioxopiperidin-3-yl)-3-oxo-4-[(3R)-oxolan-3-yloxy]-2,3-dihydro-1H-isoindol-5-yl]methyl N-[4-(3-chlorophenoxy)phenyl]carbamate], in assay [2], the IC50 turned out to be 175 nM and the Emax was 109%. In assay [3], the DC50 was 74 nM and the Dmax was determined as 104%.

As to `O=C1CCC(N2Cc3ccc(COC(=O)Nc4ccc(Oc5cccc(F)c5F)cc4)c(O[C@@H]4CCOC4)c3C2=O)C(=O)N1` (stereo partly drawn) [Example 156, [2-(2,6-dioxopiperidin-3-yl)-3-oxo-4-[(3R)-oxolan-3-yloxy]-2,3-dihydro-1H-isoindol-5-yl]methyl N-[4-(2,3-difluorophenoxy)phenyl]carbamate], in assay [2], half-maximal inhibition (IC50) required 39 nM and the Emax is 116%. Besides, in assay [3], half-maximal degradation (DC50) was put at 101 nM and the Dmax is 103%.

Turning to `O=C1CCC(N2Cc3ccc(COC(=O)Nc4ccc(Oc5ccc(F)cc5Cl)cc4)c(O[C@@H]4CCOC4)c3C2=O)C(=O)N1` (stereo partly drawn) [Example 155, [2-(2,6-dioxopiperidin-3-yl)-3-oxo-4-[(3R)-oxolan-3-yloxy]-2,3-dihydro-1H-isoindol-5-yl]methyl N-[4-(2-chloro-4-fluorophenoxy)phenyl]carbamate], in assay [2], the IC50 worked out at 188 nM and the Emax is 116%. Besides, in assay [3], half-maximal degradation (DC50) was put at 176 nM and the Dmax amounted to 100%.
